In patent EP3634580B1, “COMPOSITIONS COMPRISING LACTULOSE FOR MAINTAINING OR IMPROVING GUT HEALTH IN HUMANS” (Fresenius Kabi Austria GmbH, priority 2017, dated 2018):

Tests used:
[1] = tested on: colon microbiota of human origin; assay: TNO Intestinal Model (TIM-2), in vitro model of the proximal colon: sodium hydroxide consumption; assay type: cell-based; details: for Cumulative sodium hydroxide consumption: mean of n = 2
Description: (§1) Crystalline lactulose was administered daily for 5 days to the TNO Intestinal Model (TIM-2), an in vitro model of the proximal colon. NaOH consumption, short-chain fatty acids (SCFA) production, ammonia production as well as relative abundance of microbiota were analyzed.
(§2) The substance administered in this study was lactulose crystals (S.C.M. Società Chimica Mugello S.r.l., Vicchio, Italy). Experiments without the addition of lactulose served as negative control.
(§3) The TNO Intestinal Model (TIM-2) is a dynamic in vitro model of the proximal colon. The TIM-2 system was inoculated with a highly metabolically active colon microbiota of human origin. In the system the following standardized conditions were simulated: body temperature; pH in the lumen of the proximal colon (pH 5.8); delivery of a substrate from the 'ileum' (SIEM; Standardized Ileum Efflux Medium); mixing and transport of the intestinal contents; anaerobiosis; absorption of water and absorption of fermentation products, metabolites and other low molecular weight compounds (via a semipermeable membrane inside the colon model).
(§4) SIEM simulates material passing the ileocecal valve in humans. It contained the major non-digestible carbohydrates (pectin, xylan, arabinogalactan, amylopectin, starch) found in a normal western diet as well as protein (bactopepton, casein), ox-bile, Tween 80 as well as vitamins and minerals. SIEM was added to the system at a speed of 2.5 mL/h and the speed of the dialysis liquid was 1.5 mL/min. During the experiment, the intestinal contents were mixed continuously by the peristaltic movements of the TIM-2 system. In order to simulate the transit of the chime from proximal to distal colon, 25 mL of the lumen was removed every 24 h and discarded.
(§5) Before performing each experiment, the system was inoculated with a standardized microbiota of human origin. This standardized microbiota was prepared using fecal donations from a group of 4 healthy volunteers (3 females, 1 male, age 38.8 ± 3.9 years; BMI (body mass index) 24.2 ± 1.5 kg/m^2). Individuals provided signed informed consent before participation, were non-smokers and had not used antibiotics, prebiotics, probiotics or laxatives within 1 month before the stool donation.
(§6) At the start of the adaptation period the microbiota was allowed to adapt to the model conditions and SIEM for 16 h. After the adaptation period the 120 h test period started in which lactulose was added to TIM-2 once daily.
(§7) Lactulose was added to the system at daily doses of 2 g, 3 g, 4 g, and 5 g lactulose. Each dose as well as the control experiment was studied in duplicate (n = 2). The test period of the TIM-2 experiments lasted 120 h (5 consecutive days).
The pH was kept at a value of 5.8 by automatic titration with 2 M NaOH, the consumption of NaOH was monitored.

[2] = tested on: colon microbiota of human origin; assay: TIM-2 in vitro model of the proximal colon: short-chain fatty acids (SCFA) production; assay type: cell-based; details: for Cumulative production of butyrate / Cumulative production of total short chain fatty acids (SCFA): mean of n = 2
Description: as §1, §2, §3, §4, §5, §6, §7
Metabolites like the short-chain fatty acids (SCFA) and ammonia produced in TIM-2 were continuously removed from the lumen by a semipermeable membrane unit. This dialysate was collected at the start of the test period and after 24, 48, 72, 96, and 120 h.
The lumen and dialysate fractions of TIM-2 were analyzed using gas chromatography for SCFA (acetate, propionate and butyrate). Dialysate samples were directly used. Lumen samples were centrifuged (12,000 rpm at 4 °C for 10 min).

Lactobacillus = assay: TIM-2 microbiota composition by V4 16S rDNA amplicon sequencing; assay type: cell-based, human; details: for Average number of the bacterial genus Lactobacillus: after 120 h of exposure in TIM-2, control 82
Description: as §1, §2, §3, §4, §5, §6, §7
(§8) At the beginning and end of the experiment (t = 0 h and t = 120 h) luminal samples were used to investigate the composition of the microbiota. The samples were snap frozen in liquid nitrogen and stored at ≤ -72 °C until analysis.
(§9) The bacterial population in the TIM-2 samples was analyzed using Next Generation sequencing. Total DNA from the collected TIM-2 lumen samples at the start (t = 0 h) and at the end (t = 120 h) of the experiments was isolated. To determine the recovery of bacterial DNA from the samples, a quantitative polymerase chain reaction (qPCR) using primers specific for the bacterial 16S rRNA gene was used. Changes in the microbiota composition were analyzed by using mass V4 16S rDNA amplicon sequencing. Processing of the sequencing data was done using the Mothur pipeline.

Bifidobacterium = assay: as above; assay type: cell-based, human; details: for Average number of the bacterial genus Bifidobacterium: after 120 h of exposure in TIM-2, control 28,345
Description: as §1, §2, §3, §4, §5, §6, §7, §8, §9

[3] = daily doses of 2 g, 3 g, 4 g, 5 g, 120 h test period, versus control
[4] = lactulose 2 g daily, 0 h (values at the start set to zero), control 0
[5] = lactulose 3 g daily, 0 h (values at the start set to zero), control 0
[6] = lactulose 4 g daily, 0 h (values at the start set to zero), control 0
[7] = lactulose 5 g daily, 0 h (values at the start set to zero), control 0
[8] = after 120 h in TIM-2, versus control

## OC[C@H]1O[C@@H](O[C@@H]2[C@@H](CO)OC(O)(CO)[C@H]2O)[C@H](O)[C@@H](O)[C@H]1O (mixture of isomers) [Lactulose, lactulose]
[1]; [3]
  use of NaOH (in words): dose dependent increased use of NaOH
[1]; lactulose 2 g daily, 0 h, control 19
  Cumulative sodium hydroxide consumption: 19 mL
[1]; lactulose 2 g daily, 24 h, control 48
  Cumulative sodium hydroxide consumption: 58 mL
[1]; lactulose 2 g daily, 48 h, control 71
  Cumulative sodium hydroxide consumption: 89 mL
[1]; lactulose 2 g daily, 72 h, control 90
  Cumulative sodium hydroxide consumption: 115 mL
[1]; lactulose 2 g daily, 96 h, control 107
  Cumulative sodium hydroxide consumption: 139 mL
[1]; lactulose 2 g daily, 120 h, control 125
  Cumulative sodium hydroxide consumption: 162 mL
[1]; lactulose 3 g daily, 0 h, control 19
  Cumulative sodium hydroxide consumption: 20 mL
[1]; lactulose 3 g daily, 24 h, control 48
  Cumulative sodium hydroxide consumption: 65 mL
[1]; lactulose 3 g daily, 48 h, control 71
  Cumulative sodium hydroxide consumption: 105 mL
[1]; lactulose 3 g daily, 72 h, control 90
  Cumulative sodium hydroxide consumption: 136 mL
[1]; lactulose 3 g daily, 96 h, control 107
  Cumulative sodium hydroxide consumption: 169 mL
[1]; lactulose 3 g daily, 120 h, control 125
  Cumulative sodium hydroxide consumption: 202 mL
[1]; lactulose 4 g daily, 0 h, control 19
  Cumulative sodium hydroxide consumption: 20 mL
[1]; lactulose 4 g daily, 24 h, control 48
  Cumulative sodium hydroxide consumption: 72 mL
[1]; lactulose 4 g daily, 48 h, control 71
  Cumulative sodium hydroxide consumption: 113 mL
[1]; lactulose 4 g daily, 72 h, control 90
  Cumulative sodium hydroxide consumption: 151 mL
[1]; lactulose 4 g daily, 96 h, control 107
  Cumulative sodium hydroxide consumption: 185 mL
[1]; lactulose 4 g daily, 120 h, control 125
  Cumulative sodium hydroxide consumption: 223 mL
[1]; lactulose 5 g daily, 0 h, control 19
  Cumulative sodium hydroxide consumption: 18 mL
[1]; lactulose 5 g daily, 24 h, control 48
  Cumulative sodium hydroxide consumption: 69 mL
[1]; lactulose 5 g daily, 48 h, control 71
  Cumulative sodium hydroxide consumption: 117 mL
[1]; lactulose 5 g daily, 72 h, control 90
  Cumulative sodium hydroxide consumption: 157 mL
[1]; lactulose 5 g daily, 96 h, control 107
  Cumulative sodium hydroxide consumption: 193 mL
[1]; lactulose 5 g daily, 120 h, control 125
  Cumulative sodium hydroxide consumption: 223 mL
[2]; [3]
  SCFA production (in words): increased the levels
  levels of butyrate (in words): increased the levels
[2]; daily doses of 2 g, 3 g, 4 g, 5 g, 120 h test period, versus control, listed as lactulose
  SCFA production (in words): higher SCFA production as compared to the control
[2]; [4]
  Cumulative production of butyrate: 0 mmol
  Cumulative production of total short chain fatty acids (SCFA): 0 mmol
[2]; lactulose 2 g daily, 24 h, control 7
  Cumulative production of butyrate: 14 mmol
[2]; lactulose 2 g daily, 24 h, control 62
  Cumulative production of total short chain fatty acids (SCFA): 85 mmol
[2]; lactulose 2 g daily, 48 h, control 18
  Cumulative production of butyrate: 27 mmol
[2]; lactulose 2 g daily, 48 h, control 129
  Cumulative production of total short chain fatty acids (SCFA): 163 mmol
[2]; lactulose 2 g daily, 72 h, control 31
  Cumulative production of butyrate: 39 mmol
[2]; lactulose 2 g daily, 72 h, control 194
  Cumulative production of total short chain fatty acids (SCFA): 234 mmol
[2]; lactulose 2 g daily, 96 h, control 44
  Cumulative production of butyrate: 52 mmol
[2]; lactulose 2 g daily, 96 h, control 257
  Cumulative production of total short chain fatty acids (SCFA): 318 mmol
[2]; lactulose 2 g daily, 120 h, control 58
  Cumulative production of butyrate: 69 mmol
[2]; lactulose 2 g daily, 120 h, control 320
  Cumulative production of total short chain fatty acids (SCFA): 403 mmol
[2]; [5]
  Cumulative production of butyrate: 0 mmol
  Cumulative production of total short chain fatty acids (SCFA): 0 mmol
[2]; lactulose 3 g daily, 24 h, control 7
  Cumulative production of butyrate: 12 mmol
[2]; lactulose 3 g daily, 24 h, control 62
  Cumulative production of total short chain fatty acids (SCFA): 85 mmol
[2]; lactulose 3 g daily, 48 h, control 18
  Cumulative production of butyrate: 27 mmol
[2]; lactulose 3 g daily, 48 h, control 129
  Cumulative production of total short chain fatty acids (SCFA): 175 mmol
[2]; lactulose 3 g daily, 72 h, control 31
  Cumulative production of butyrate: 40 mmol
[2]; lactulose 3 g daily, 72 h, control 194
  Cumulative production of total short chain fatty acids (SCFA): 256 mmol
[2]; lactulose 3 g daily, 96 h, control 44
  Cumulative production of butyrate: 54 mmol
[2]; lactulose 3 g daily, 96 h, control 257
  Cumulative production of total short chain fatty acids (SCFA): 340 mmol
[2]; lactulose 3 g daily, 120 h, control 58
  Cumulative production of butyrate: 68 mmol
[2]; lactulose 3 g daily, 120 h, control 320
  Cumulative production of total short chain fatty acids (SCFA): 427 mmol
[2]; [6]
  Cumulative production of butyrate: 0 mmol
  Cumulative production of total short chain fatty acids (SCFA): 0 mmol
[2]; lactulose 4 g daily, 24 h, control 7
  Cumulative production of butyrate: 12 mmol
[2]; lactulose 4 g daily, 24 h, control 62
  Cumulative production of total short chain fatty acids (SCFA): 97 mmol
[2]; lactulose 4 g daily, 48 h, control 18
  Cumulative production of butyrate: 30 mmol
[2]; lactulose 4 g daily, 48 h, control 129
  Cumulative production of total short chain fatty acids (SCFA): 216 mmol
[2]; lactulose 4 g daily, 72 h, control 31
  Cumulative production of butyrate: 47 mmol
[2]; lactulose 4 g daily, 72 h, control 194
  Cumulative production of total short chain fatty acids (SCFA): 310 mmol
[2]; lactulose 4 g daily, 96 h, control 44
  Cumulative production of butyrate: 70 mmol
[2]; lactulose 4 g daily, 96 h, control 257
  Cumulative production of total short chain fatty acids (SCFA): 405 mmol
[2]; lactulose 4 g daily, 120 h, control 58
  Cumulative production of butyrate: 93 mmol
[2]; lactulose 4 g daily, 120 h, control 320
  Cumulative production of total short chain fatty acids (SCFA): 500 mmol
[2]; [7]
  Cumulative production of butyrate: 0 mmol
  Cumulative production of total short chain fatty acids (SCFA): 0 mmol
[2]; lactulose 5 g daily, 24 h, control 7
  Cumulative production of butyrate: 8 mmol
[2]; lactulose 5 g daily, 24 h, control 62
  Cumulative production of total short chain fatty acids (SCFA): 84 mmol
[2]; lactulose 5 g daily, 48 h, control 18
  Cumulative production of butyrate: 29 mmol
[2]; lactulose 5 g daily, 48 h, control 129
  Cumulative production of total short chain fatty acids (SCFA): 214 mmol
[2]; lactulose 5 g daily, 72 h, control 31
  Cumulative production of butyrate: 53 mmol
[2]; lactulose 5 g daily, 72 h, control 194
  Cumulative production of total short chain fatty acids (SCFA): 309 mmol
[2]; lactulose 5 g daily, 96 h, control 44
  Cumulative production of butyrate: 84 mmol
[2]; lactulose 5 g daily, 96 h, control 257
  Cumulative production of total short chain fatty acids (SCFA): 430 mmol
[2]; lactulose 5 g daily, 120 h, control 58
  Cumulative production of butyrate: 118 mmol
[2]; lactulose 5 g daily, 120 h, control 320
  Cumulative production of total short chain fatty acids (SCFA): 520 mmol
Lactobacillus; [8]
  abundance of Lactobacillus (in words): increased the abundance
Lactobacillus; lactulose 2 g daily
  Average number of the bacterial genus Lactobacillus: 1,623
Lactobacillus; lactulose 3 g daily
  Average number of the bacterial genus Lactobacillus: 1,504
Lactobacillus; lactulose 4 g daily
  Average number of the bacterial genus Lactobacillus: 12,047
Lactobacillus; lactulose 5 g daily
  Average number of the bacterial genus Lactobacillus: 912
Bifidobacterium; [8]
  abundance of Bifidobacterium (in words): increased the abundance
Bifidobacterium; lactulose 2 g daily
  Average number of the bacterial genus Bifidobacterium: 24,781
Bifidobacterium; lactulose 3 g daily
  Average number of the bacterial genus Bifidobacterium: 17,424
Bifidobacterium; lactulose 4 g daily
  Average number of the bacterial genus Bifidobacterium: 135,876
Bifidobacterium; lactulose 5 g daily
  Average number of the bacterial genus Bifidobacterium: 116,792
